{"source": "patent US20070276040A1", "about": "“Peptidyl Arginine Deiminase Type IV Inhibitor” (priority 2004, published 2007)", "biological_target": "T1, PAD4 (Homo sapiens, UniProt Q9UM07, G112A/G55S/V82A)", "T1 construct": "made in house", "T1 sequence (Q9UM07 whole entry G55S/V82A/G112A)": "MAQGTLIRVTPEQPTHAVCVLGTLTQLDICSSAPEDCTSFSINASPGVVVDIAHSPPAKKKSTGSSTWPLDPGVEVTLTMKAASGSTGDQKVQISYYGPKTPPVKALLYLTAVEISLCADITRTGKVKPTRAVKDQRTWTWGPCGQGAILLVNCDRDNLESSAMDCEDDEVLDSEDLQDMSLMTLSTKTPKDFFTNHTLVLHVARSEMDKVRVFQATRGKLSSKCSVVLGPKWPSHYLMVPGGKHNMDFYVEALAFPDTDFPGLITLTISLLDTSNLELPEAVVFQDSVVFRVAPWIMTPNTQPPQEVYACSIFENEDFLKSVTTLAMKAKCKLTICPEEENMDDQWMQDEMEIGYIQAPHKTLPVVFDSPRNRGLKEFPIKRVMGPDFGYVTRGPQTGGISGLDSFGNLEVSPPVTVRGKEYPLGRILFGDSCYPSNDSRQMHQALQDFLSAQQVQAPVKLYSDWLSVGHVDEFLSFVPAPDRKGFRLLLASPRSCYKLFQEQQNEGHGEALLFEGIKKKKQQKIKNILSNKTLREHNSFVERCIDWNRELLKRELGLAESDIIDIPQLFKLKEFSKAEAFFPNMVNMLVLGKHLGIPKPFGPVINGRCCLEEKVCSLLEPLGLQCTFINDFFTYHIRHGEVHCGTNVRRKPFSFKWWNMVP", "assay": "Inhibition reaction of Bz-Arg derivatives on PAD4 digestion", "assay_type": "biochemical", "conditions": "substrate Bz-Arg; 20 μl inhibitor solution of 1 nmol/μl; 10 mM CaCl2, pH 7.6; 37° C. for 40 or 60 minutes; reverse-phase HPLC", "experimental": "A buffer solution B (0.1 M Tris/HCl, 10 mM CaCl2, 2 mM DTT, pH 7.6, 125 μl), Bz-Arg (0.1 M Tris/HCl, 10 mM CaCl2, pH 7.6, 25 μl (a solution prepared in a concentration of 1 nmol/μl)) and PAD4 (1 μl) were mixed together under ice-cooling to give a Bz-Arg solution. PAD4 was prepared in accordance with the methods described in The Journal of Biological Chemistry, Vol. 277, No. 51, pp. 49562-49568, 2002 and in the documents cited in the journal. Twenty μl each of Bz-Arg (mono-methyl), Bz-ADMA, Bz-SDMA and a buffer solution A (0.1 M Tris/HCl, 10 mM CaCl2, pH 7.6) (a solution prepared in a concentration of 1 nmol/μl) was mixed with the Bz-Arg solution (30 μl) and allowed to react at 37° C. for 40 or 60 minutes. The reaction was quenched with 1 M HCl (50 μl) and then subjected to reverse-phase HPLC to separate the reaction mixture. […] The results as determined 40 minutes and 60 minutes after the start of reaction are shown in FIG. 3 and FIG. 4, respectively. In FIGS. 3 and 4, the reference number 1 represents the result with no inhibitor, 2 for the result with Bz-Arg (mono-methyl), 3 for the results with Bz-ADMA, and 4 for the result with Bz-SDMA; the vertical axis indicates the sample number and the horizontal axis indicates the yield of the deimination reaction (i.e., yield of the Bz-citrulline produced)."}
{"smiles": "CN(C)C(=N)NCCCC(NC(=O)c1ccccc1)C(=O)O", "note": "(centres unmarked) [Bz-ADMA]", "values": [{"measurement": "inhibitory effect on PAD4 digestion (deimination of Bz-Arg, yield of the Bz-citrulline produced)", "value": "most potent inhibitory effect"}]}
{"smiles": "C/N=C(/NC)NCCCC(NC(=O)c1ccccc1)C(=O)O", "note": "(centres unmarked) [Bz-SDMA]", "values": [{"measurement": "inhibitory effect on PAD4 digestion (deimination of Bz-Arg, yield of the Bz-citrulline produced)", "value": "no inhibitory effect"}]}
